SMILES strings stand for the structures.

As a reminder, the IC50 is the concentration that gives 50% inhibition.

Common to all, as to format: cell-based
The target of experiment [1] is T1, dopamine transporter (DAT) (Homo sapiens, UniProt Q01959).
T1 construct: expressed in transfected cells; host or cells: HEK-293
In words: Dopamine reuptake inhibition, [3H]-DA, HEK-293 cells transfected with dopamine transporter cDNA. The following applies: for Triple reuptake inhibition (Ratio %) DAT: compound 1 μM, 20-30 nM [3H]-DA, relative to control without compound = 100%, lower value = more inhibition; for IC50: concentration at which Ratio % is 50%, 6 concentrations 1 nM to 1 μM, read-out: Triple reuptake inhibition (IC50, μM) DAT. On the procedure:
(§1) In order to evaluate the reuptake inhibitory effect of the compounds of the Examples according to the present invention on serotonin, norepinephrine and dopamine, the experiments below were performed, and the results are shown in Table 17.
(§2) To evaluate the reuptake inhibition effect on dopamine, the dopamine transporter cDNA was transfected using the HEK-293 cell line, and then sub-seeded in a 24 well plate the next day. After removing the medium, each compound of the Examples or Comparative Examples diluted to 1 μM in uptake buffer was added to a concentration of 200 μl/well and cultured at 37° C. for 15 minutes. 100 μl of uptake buffer containing 20-30 nM [3H]-DA was added and cultured at 37° C. for 5 minutes. The reaction solution was quickly removed and washed three times with 1 ml ice-cold uptake buffer. After dissolving the resultant in 1% SDS (0.5 ml), the degree of binding of radioisotope-labeled dopamine to the transporter was measured.
(§3) In addition, when evaluating the reuptake inhibitory effect on dopamine, norepinephrine, and serotonin, the same method was performed without treating each compound of the Examples or Comparative Examples as a control, the degree of binding of radioisotope-labeled dopamine, norepinephrine, and serotonin to the transporter was measured, and by using this as a reference (100%), the triple reuptake inhibitory effect was evaluated as a relative ratio (Ratio %). That is, in the control group, the binding of dopamine, norepinephrine, and serotonin to transporters is not inhibited, but when each compound of the Examples is treated and thus the binding is inhibited, the Ratio % value decreases.
(§4) Meanwhile, the Ratio % values were compared, and in the case of the compounds of Examples 6, 10, 13, 14, 17, 20, 21, 22, 30, 31, 32, 34, 36, 38, 39, 40, 54, 55, 56, 57, 58 and 73 with excellent reuptake inhibitory effects on dopamine, norepinephrine and serotonin, the concentration at which the Ratio % is 50% was calculated using a total of 6 concentrations (1 nM, 5 nM, 10 nM, 50 nM, 100 nM, and 1 μM) and expressed as IC50.

Experiment [2] addresses T2, norepinephrine transporter (NET) (Homo sapiens, UniProt P23975).
T2 construct: expressed in transfected cells; host or cells: HEK-293
In words: Norepinephrine reuptake inhibition, [3H]-NE, HEK-293 cells transfected with NE transporter cDNA. The settings on record: for Triple reuptake inhibition (Ratio %) NET: compound 1 μM, [3H]-NE, relative to control without compound = 100%, lower value = more inhibition; for IC50: concentration at which Ratio % is 50%, 6 concentrations 1 nM to 1 μM, read-out: Triple reuptake inhibition (IC50, μM) NET. On the procedure: as §1, §2
(§5) For norepinephrine (NE) and serotonin (5-HT), the degree of binding of radioisotope-labeled norepinephrine or serotonin to the transporter was measured in the same manner as above, except that cells transfected with NE or 5-HT transporter cDNA were used and [3H]—NE or [3H]-5-HT was used as a substrate.
as §3, §4

The target in experiment [3] is T3, serotonin transporter (SERT) (Homo sapiens, UniProt P31645).
T3 construct: expressed in transfected cells; host or cells: HEK-293
T3 sequence (P31645 whole entry, species assumed): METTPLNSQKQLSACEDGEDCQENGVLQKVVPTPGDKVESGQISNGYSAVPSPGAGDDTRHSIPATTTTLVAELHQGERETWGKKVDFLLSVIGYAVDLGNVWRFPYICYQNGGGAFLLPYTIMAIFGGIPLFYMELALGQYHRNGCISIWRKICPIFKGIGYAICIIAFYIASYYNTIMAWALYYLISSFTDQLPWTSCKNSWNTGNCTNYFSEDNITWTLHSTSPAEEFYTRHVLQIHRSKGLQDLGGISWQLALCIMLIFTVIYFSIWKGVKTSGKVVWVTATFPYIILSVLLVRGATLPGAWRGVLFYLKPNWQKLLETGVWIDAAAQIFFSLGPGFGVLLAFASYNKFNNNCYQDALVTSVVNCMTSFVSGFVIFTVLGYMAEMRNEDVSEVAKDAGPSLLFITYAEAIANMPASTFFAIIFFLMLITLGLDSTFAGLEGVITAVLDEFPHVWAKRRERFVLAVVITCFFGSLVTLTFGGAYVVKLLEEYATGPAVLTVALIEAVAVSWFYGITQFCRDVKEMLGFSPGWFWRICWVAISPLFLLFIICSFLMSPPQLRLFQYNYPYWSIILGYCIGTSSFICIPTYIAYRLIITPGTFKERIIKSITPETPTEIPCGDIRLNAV
In words: Serotonin reuptake inhibition, [3H]-5-HT, HEK-293 cells transfected with 5-HT transporter cDNA. The settings on record: for Triple reuptake inhibition (Ratio %) SERT: compound 1 μM, [3H]-5-HT, relative to control without compound = 100%, lower value = more inhibition; for IC50: concentration at which Ratio % is 50%, 6 concentrations 1 nM to 1 μM, read-out: Triple reuptake inhibition (IC50, μM) SERT. The method, then: as §1, §2, §5, §3, §4

T1 sequence (Q01959 whole entry, species assumed): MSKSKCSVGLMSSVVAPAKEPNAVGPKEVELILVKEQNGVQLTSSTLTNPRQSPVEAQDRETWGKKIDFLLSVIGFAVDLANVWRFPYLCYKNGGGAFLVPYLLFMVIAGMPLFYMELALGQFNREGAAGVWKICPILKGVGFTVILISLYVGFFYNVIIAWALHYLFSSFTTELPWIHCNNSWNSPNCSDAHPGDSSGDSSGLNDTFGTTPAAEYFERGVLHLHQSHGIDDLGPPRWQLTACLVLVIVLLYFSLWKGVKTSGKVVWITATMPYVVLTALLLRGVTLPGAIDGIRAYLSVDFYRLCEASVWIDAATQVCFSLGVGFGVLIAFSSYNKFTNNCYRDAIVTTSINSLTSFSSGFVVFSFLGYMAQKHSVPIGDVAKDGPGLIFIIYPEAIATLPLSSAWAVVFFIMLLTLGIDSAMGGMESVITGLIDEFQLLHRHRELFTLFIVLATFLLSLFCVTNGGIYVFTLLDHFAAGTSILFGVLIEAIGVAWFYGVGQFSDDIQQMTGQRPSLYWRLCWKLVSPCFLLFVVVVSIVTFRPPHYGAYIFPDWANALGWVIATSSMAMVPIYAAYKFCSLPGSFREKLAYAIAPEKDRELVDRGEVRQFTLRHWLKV
T2 sequence (P23975 whole entry, species assumed): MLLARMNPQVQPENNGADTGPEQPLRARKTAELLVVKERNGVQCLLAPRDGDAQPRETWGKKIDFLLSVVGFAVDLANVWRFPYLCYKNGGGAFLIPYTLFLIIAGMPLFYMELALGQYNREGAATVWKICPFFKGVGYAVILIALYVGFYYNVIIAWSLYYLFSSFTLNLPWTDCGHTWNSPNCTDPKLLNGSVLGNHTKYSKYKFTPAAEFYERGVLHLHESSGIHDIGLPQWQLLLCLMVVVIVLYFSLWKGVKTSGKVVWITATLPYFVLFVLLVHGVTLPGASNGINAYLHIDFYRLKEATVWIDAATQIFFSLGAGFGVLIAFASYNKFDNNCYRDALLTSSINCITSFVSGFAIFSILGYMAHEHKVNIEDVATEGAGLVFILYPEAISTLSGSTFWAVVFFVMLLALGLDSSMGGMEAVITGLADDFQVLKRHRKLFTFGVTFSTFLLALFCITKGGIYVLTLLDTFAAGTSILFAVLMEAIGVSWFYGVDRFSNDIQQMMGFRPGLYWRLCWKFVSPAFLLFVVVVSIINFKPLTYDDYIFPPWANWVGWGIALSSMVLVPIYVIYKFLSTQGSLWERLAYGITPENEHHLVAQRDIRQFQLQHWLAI

With `CCCCOc1ccc(S(=O)(=O)NCCCN2CCN(c3cccc(C(F)(F)F)c3)CC2)cc1` [Example 26, 4-butoxy-N-(3-(4-(3-(trifluoromethyl)phenyl)piperazin-1-yl)propyl)benzenesulfonamide], the “Triple reuptake inhibition (Ratio %) DAT” value in experiment [1] worked out at 97.83%. The “Triple reuptake inhibition (Ratio %) NET” value in experiment [2] was determined as 93.31%. In experiment [3], the “Triple reuptake inhibition (Ratio %) SERT” value is 50.98%.

With `O=S(=O)(NCCN1CCC(c2ccccc2)CC1)c1ccc2ccccc2n1` [Example 45, N-(2-(4-phenylpiperidin-1-yl)ethyl)quinolin-2-sulfonamide], the “Triple reuptake inhibition (Ratio %) DAT” value in experiment [1] stood at 89.88%. Further, the “Triple reuptake inhibition (Ratio %) NET” value in experiment [2] worked out at 45.04%. For the same molecule, the “Triple reuptake inhibition (Ratio %) SERT” value in experiment [3] was 56.73%.

Consider `CCCCOc1ccc(S(=O)(=O)NCCN2CCC(c3c[nH]c4ccccc34)CC2)cc1` [Example 6], for which, in experiment [1], the “Triple reuptake inhibition (Ratio %) DAT” value is reported as 54.56% and the concentration for half-maximal inhibition (IC50) was 1.99 µM. Also, the “Triple reuptake inhibition (Ratio %) NET” value in experiment [2] turned out to be 81.97%. Further, in experiment [3], the “Triple reuptake inhibition (Ratio %) SERT” value is 29.04% and the 50% inhibitory concentration (IC50) is 0.457 µM.

As to `O=S(=O)(NCCN1CCC(c2ccccc2)CC1)c1ccc2ccccc2c1` [Example 42, N-(2-(4-phenylpiperidin-1-yl)ethyl)naphthalen-2-sulfonamide], the “Triple reuptake inhibition (Ratio %) DAT” value in experiment [1] is listed as 80.21%. In experiment [2], the “Triple reuptake inhibition (Ratio %) NET” value stood at 34.97%. Besides, the “Triple reuptake inhibition (Ratio %) SERT” value in experiment [3] is 64.15%.

As to `O=S(=O)(NCCCN1CCC(CCCc2ccccc2)CC1)c1ccc(-c2ccccc2)cc1` [Example 75, N-(3-(4-(3-phenylpropyl)piperidin-1-yl)propyl)-[1,1′-biphenyl]-4-sulfonamide], in experiment [1], the “Triple reuptake inhibition (Ratio %) DAT” value was found to be 76.23%. For the same molecule, the “Triple reuptake inhibition (Ratio %) NET” value in experiment [2] came to 44.79%. Besides, the “Triple reuptake inhibition (Ratio %) SERT” value in experiment [3] was determined as 61.48%.

For the molecule `O=S(=O)(NCCCCN1CCN(CCCc2ccccc2)CC1)c1ccc(-c2ccccc2)cc1` [Example 78, N-(4-(4-(3-phenylpropyl)piperazin-1-yl)butyl)-[1,1′-biphenyl]-4-sulfonamide], the “Triple reuptake inhibition (Ratio %) DAT” value in experiment [1] came out at 25.52%. Further, the “Triple reuptake inhibition (Ratio %) NET” value in experiment [2] is recorded as 44.79%. In addition, in experiment [3], the “Triple reuptake inhibition (Ratio %) SERT” value is recorded as 32.90%.

`O=S(=O)(NCCN1CCN(Cc2ccccc2)CC1)c1cccc2ccccc12` [Example 47, N-(2-(4-benzylpiperazin-1-yl)ethyl)naphthalen-1-sulfonamide]: in experiment [1], the “Triple reuptake inhibition (Ratio %) DAT” value is recorded as 83.08%. Besides, in experiment [2], the “Triple reuptake inhibition (Ratio %) NET” value amounted to 87.27%. Besides, the “Triple reuptake inhibition (Ratio %) SERT” value in experiment [3] came to 49.64%.

Turning to `O=S(=O)(NCCCN1CCC(Cc2ccccc2)CC1)c1ccc(Oc2ccccc2)cc1` [Example 13, N-(3-(4-benzylpiperidin-1-yl)propyl)-4-phenoxybenzenesulfonamide], in experiment [1], the “Triple reuptake inhibition (Ratio %) DAT” value was 25.55% and the concentration for half-maximal inhibition (IC50) is 0.872 µM. In experiment [2], the “Triple reuptake inhibition (Ratio %) NET” value was 11.04% and the IC50 was determined as 0.112 µM. For the same molecule, in experiment [3], the “Triple reuptake inhibition (Ratio %) SERT” value is listed as 41.46% and the 50% inhibitory concentration (IC50) turned out to be 1.08 µM.

As to `O=S(=O)(NCCCN1CCC(Cc2ccccc2)CC1)c1ccc(-c2ccccc2)cc1` [Example 56, N-(3-(4-benzylpiperidin-1-yl)propyl)-[1,1′-biphenyl]-4-sulfonamide], in experiment [1], the “Triple reuptake inhibition (Ratio %) DAT” value came to 61.90% and the concentration for half-maximal inhibition (IC50) was 0.42 µM. Also, in experiment [2], the “Triple reuptake inhibition (Ratio %) NET” value came to 68.65% and the IC50 came out at 0.641 µM. In experiment [3], the “Triple reuptake inhibition (Ratio %) SERT” value turned out to be 56.50% and the IC50 was 0.75 µM.

For the molecule `O=S(=O)(NCCN1CCC(c2ccccc2)CC1)c1ccc(-c2ccccc2)cc1` [Example 44, N-(2-(4-phenylpiperidin-1-yl)ethyl)-[1,1′-biphenyl]-4-sulfonamide], in experiment [1], the “Triple reuptake inhibition (Ratio %) DAT” value amounted to 37.93%. Besides, the “Triple reuptake inhibition (Ratio %) NET” value in experiment [2] is listed as 14.04%. In addition, in experiment [3], the “Triple reuptake inhibition (Ratio %) SERT” value came to 15.55%.

Consider `CCCCOc1ccc(S(=O)(=O)NCCCN2CCC(c3c[nH]c4ccccc34)CC2)cc1` [Example 11, N-(3-(4-(1H-indol-3-yl)piperidin-1-yl)propyl)-4-butoxybenzenesulfonamide], for which the “Triple reuptake inhibition (Ratio %) DAT” value in experiment [1] is recorded as 73.16%. Further, the “Triple reuptake inhibition (Ratio %) NET” value in experiment [2] was determined as 73.79%. In addition, the “Triple reuptake inhibition (Ratio %) SERT” value in experiment [3] amounted to 18.04%.

`O=S(=O)(NCCN1CCN(c2ccc(Cl)cc2)CC1)c1ccc(-c2ccccc2)cc1` [Example 52, N-(2-(4-(4-chlorophenyl)piperazin-1-yl)ethyl)-[1,1′-biphenyl]-4-sulfonamide]: the “Triple reuptake inhibition (Ratio %) DAT” value in experiment [1] was found to be 68.53%. The “Triple reuptake inhibition (Ratio %) NET” value in experiment [2] is on record as 64.45%. Also, the “Triple reuptake inhibition (Ratio %) SERT” value in experiment [3] is 47.19%.

Take `CCCCOc1ccc(S(=O)(=O)NCCCN2CCN(CC3CCOCC3)CC2)cc1` [Example 25, 4-butoxy-N-(3-(4-((tetrahydro-2H-pyran-4-yl)methyl)piperazin-1-yl)propyl)benzenesulfonamide]: the “Triple reuptake inhibition (Ratio %) DAT” value in experiment [1] was determined as 111.51%. Also, the “Triple reuptake inhibition (Ratio %) NET” value in experiment [2] is listed as 102.91%. Further, in experiment [3], the “Triple reuptake inhibition (Ratio %) SERT” value is reported as 84.44%.

As to `O=S(=O)(NCCCCN1CCC(Cc2ccccc2)CC1)c1ccc(-c2ccccc2)cc1` [Example 77, N-(4-(4-benzylpiperidin-1-yl)butyl)-[1,1′-biphenyl]-4-sulfonamide], the “Triple reuptake inhibition (Ratio %) DAT” value in experiment [1] worked out at 25.71%. Besides, in experiment [2], the “Triple reuptake inhibition (Ratio %) NET” value is recorded as 44.79%. In addition, the “Triple reuptake inhibition (Ratio %) SERT” value in experiment [3] is listed as 40.45%.

Take `O=S(=O)(NCCCN1CCN(c2ccc(Cl)cc2)CC1)c1ccc2ccccc2n1` [Example 73, N-(3-(4-(4-chlorophenyl)piperazin-1-yl)propyl)quinolin-2-sulfonamide]: the “Triple reuptake inhibition (Ratio %) DAT” value in experiment [1] amounted to 68.53%. For the same molecule, in experiment [2], the “Triple reuptake inhibition (Ratio %) NET” value is listed as 64.45%. Also, in experiment [3], the “Triple reuptake inhibition (Ratio %) SERT” value was determined as 47.19% and the 50% inhibitory concentration (IC50) came to 0.102 µM.

In the case of `O=S(=O)(NCCN1CCC(Cc2ccccc2)CC1)c1ccc2ccccc2c1` [Example 38, N-(2-(4-benzylpiperidin-1-yl)ethyl) naphthalen-2-sulfonamide], in experiment [1], the “Triple reuptake inhibition (Ratio %) DAT” value was found to be 56.59% and the IC50 was determined as 0.493 µM. Moreover, the “Triple reuptake inhibition (Ratio %) NET” value in experiment [2] is reported as 21.54%. In addition, the “Triple reuptake inhibition (Ratio %) SERT” value in experiment [3] is on record as 34.20%.

Take `CCCCOc1ccc(S(=O)(=O)NCCCN2CCC(Cc3ccc(Cl)cc3)CC2)cc1` [Example 28, 4-butoxy-N-(3-(4-(4-chlorobenzyl)piperidin-1-yl)propyl)benzenesulfonamide]: the “Triple reuptake inhibition (Ratio %) DAT” value in experiment [1] stood at 94.53%. Besides, in experiment [2], the “Triple reuptake inhibition (Ratio %) NET” value amounted to 64.36%. Moreover, the “Triple reuptake inhibition (Ratio %) SERT” value in experiment [3] came to 26.63%.

As to `O=S(=O)(NCCCN1CCC(CCCc2ccccc2)CC1)c1ccc(-c2ccc(F)cc2)cc1` [Example 74, 4′-fluoro-N-(3-(4-(3-phenylpropyl)piperidin-1-yl)propyl)-[1,1′-biphenyl]-4-sulfonamide], the “Triple reuptake inhibition (Ratio %) DAT” value in experiment [1] is listed as 76.23%. Moreover, the “Triple reuptake inhibition (Ratio %) NET” value in experiment [2] came out at 44.79%. Moreover, the “Triple reuptake inhibition (Ratio %) SERT” value in experiment [3] was 61.48%.

As for `CCCCOc1ccc(S(=O)(=O)NCCCN2CCC(Cc3ccc(C)cc3)CC2)cc1` [Example 29, 4-butoxy-N-(3-(4-(4-methylbenzyl)piperidin-1-yl)propyl)benzenesulfonamide], in experiment [1], the “Triple reuptake inhibition (Ratio %) DAT” value was 89.50%. The “Triple reuptake inhibition (Ratio %) NET” value in experiment [2] is given as 54.04%. Further, the “Triple reuptake inhibition (Ratio %) SERT” value in experiment [3] was 39.39%.

Regarding `CCCCOc1ccc(S(=O)(=O)NCCCN2CCN(Cc3ccccc3)CC2)cc1` [Example 27, N-(3-(4-benzylpiperazin-1-yl)propyl)-4-butoxybenzenesulfonamide], the “Triple reuptake inhibition (Ratio %) DAT” value in experiment [1] came out at 88.17%. Further, the “Triple reuptake inhibition (Ratio %) NET” value in experiment [2] is 36.89%. In experiment [3], the “Triple reuptake inhibition (Ratio %) SERT” value was found to be 76.16%.

(Values after patent US20230212121A1 (DAEGU-GYEONGBUK MEDICAL INNOVATION FOUNDATION, priority 2020, published 2023).)
